Reference: ChEMBL document CHEMBL3526027, “Pharmacokinetics, metabolism, and excretion of the antidiabetic agent ertugliflozin (PF-04971729) in healthy male subjects” (Drug Metab Dispos, 2013)

Tests used:
Plasma [1] = assay: Drug metabolism in healthy human plasma treated with [14C]-ertugliflozin at 25 mg, po by HPLC-radiocardiogram analysis; assay type: ADME, organism-based; details: in vivo
Plasma [2] = assay: Drug level in beagle dog plasma treated with [14C]-ertugliflozin at 10 mg/kg, po; assay type: ADME, organism-based, Canis lupus familiaris; parameters: dose 10 mg/kg, route oral; details: in vivo
Homo sapiens [3] = assay: Total drug excretion in healthy human treated with [14C]-ertugliflozin at 25 mg, po by HPLC-radiocardiogram analysis; assay type: ADME, organism-based; details: in vivo
[4] = Drug level in bile duct-cannulated rat bile treated with [14C]-ertugliflozin at 25 mg/kg, po; assay type: ADME, organism-based; parameters: dose 25 mg/kg, route oral; details: in vivo
[5] = Drug level in bile duct-cannulated dog bile treated with [14C]-ertugliflozin at 10 mg/kg, po; assay type: ADME, organism-based, Canis lupus familiaris; parameters: dose 10 mg/kg, route oral; details: in vivo
Liver microsome [6] = assay: Metabolic stability in human liver microsomes assessed as retention time treated with 10 µM ertugliflozin by HPLC analysis
Plasma [7] = assay: Drug level in Sprague-Dawley rat plasma treated with [14C]-ertugliflozin at 25 mg/kg, po; assay type: ADME, organism-based; parameters: dose 25 mg/kg, route oral; details: in vivo
[8] = Drug excretion in healthy human urine treated with [14C]-ertugliflozin at 25 mg, po by HPLC-radiocardiogram analysis; assay type: ADME, organism-based; details: in vivo
Liver microsome [9] = assay: Metabolic stability in human liver microsomes assessed as retention time at 10 uM by HPLC analysis; details: in vitro
Plasma [10] = assay: Drug metabolism in Sprague-Dawley rat plasma assessed as ertugliflozin-4-O-beta-glucuronide level at 25 mg/kg, po; assay type: ADME, organism-based; parameters: dose 25 mg/kg, route oral; details: in vivo
Plasma [11] = assay: Drug metabolism in beagle dog plasma assessed as ertugliflozin-4-O-beta-glucuronide level at 10 mg/kg, po; assay type: ADME, organism-based, Canis lupus familiaris; parameters: dose 10 mg/kg, route oral; details: in vivo
[12] = Drug recovery in beagle dog feces assessed as ertugliflozin-4-O-beta-glucuronide level at 10 mg/kg, po; assay type: ADME, organism-based, Canis lupus familiaris; parameters: dose 10 mg/kg, route oral; details: in vivo
Plasma [13] = assay: Drug metabolism in beagle dog plasma assessed as ertugliflozin-3-O-beta-glucuronide level at 10 mg/kg, po; assay type: ADME, organism-based, Canis lupus familiaris; parameters: dose 10 mg/kg, route oral; details: in vivo
Plasma [14] = assay: Drug metabolism in Sprague-Dawley rat plasma assessed as ertugliflozin-3-O-beta-glucuronide level at 25 mg/kg, po; assay type: ADME, organism-based; parameters: dose 25 mg/kg, route oral; details: in vivo
[15] = Drug recovery in Sprague-Dawley rat feces treated with [14C]-ertugliflozin at 25 mg/kg, po; assay type: ADME, organism-based; parameters: dose 25 mg/kg, route oral; details: in vivo
[16] = Drug excretion in healthy human feces treated with [14C]-ertugliflozin at 25 mg, po by HPLC-radiocardiogram analysis; assay type: ADME, organism-based; details: in vivo
[17] = Drug recovery in beagle dog feces treated with [14C]-ertugliflozin at 10 mg/kg, po; assay type: ADME, organism-based, Canis lupus familiaris; parameters: dose 10 mg/kg, route oral; details: in vivo
[18] = Drug metabolism in healthy human plasma at 25 mg, po by HPLC-radiocardiogram analysis; assay type: ADME, organism-based; details: read-out: Drug metabolism
[19] = Oral bioavailability in beagle dog at 2 mg/kg; assay type: ADME, organism-based, Canis lupus familiaris; details: in vivo
[20] = Drug level in bile duct-cannulated rat bile at 25 mg/kg, po; assay type: ADME, organism-based; parameters: dose 25 mg/kg, route oral; details: read-out: Drug uptake
[21] = Terminal half life in healthy human at 25 mg, po; assay type: ADME, organism-based; details: in vivo, read-out: beta t1/2 (converted)
[22] = AUC (0 to last) in healthy human at 25 mg, po; assay type: ADME, organism-based; parameters: dose 25 mg, time 0 - last, route oral; details: plasma
[23] = Total drug excretion in healthy human at 25 mg, po by HPLC-radiocardiogram analysis; assay type: ADME, organism-based; details: in vivo, read-out: Drug excretion
Homo sapiens [24] = assay: AUC (0 to infinity) in healthy human at 25 mg, po; assay type: ADME, organism-based, Plasma; parameters: dose 25 mg, time infinity, route oral; details: in vivo
[25] = Tmax in healthy human at 25 mg, po; assay type: ADME, organism-based; details: in vivo
[26] = Drug level in bile duct-cannulated dog bile at 10 mg/kg, po; assay type: ADME, organism-based, Canis lupus familiaris; parameters: dose 10 mg/kg, route oral; details: read-out: Drug uptake
[27] = Cmax in healthy human at 25 mg, po; assay type: ADME, organism-based; parameters: dose 25 mg, route oral; details: in vivo
[28] = Terminal elimination half life in human at 0.5 to 300 mg, po; assay type: ADME, organism-based; details: in vivo, read-out: beta t1/2 (converted)
[29] = Oral bioavailability in Sprague-Dawley rat at 2 mg/kg; assay type: ADME, organism-based; details: in vivo

SMILES | Drug metabolism (Plasma [1]) [%] | Drug metabolism (Plasma [2]) | Drug excretion (Homo sapiens [3]) [%] | Retention_time (Liver microsome [6]) [min] | Drug metabolism (Plasma [7]) | Drug excretion [8] [%] | Retention_time (Liver microsome [9]) [min] | Drug excretion [16] [%] | Drug recovery [17] [%] | also measured
CCOc1ccc(Cc2cc([C@]34OC[C@](CO)(O3)[C@@H](O)[C@H](O[C@@H]3O[C@H](C(=O)O)[C@@H](O)[C@H](O)[C@H]3O)[C@H]4O)ccc2Cl)cc1 | 24.1 | metabolite_detected | 31.7 | 34.3 | metabolite_detected | 31.7 |  |  |  | Drug uptake [4]: 16.5%; Drug uptake [5]: 39.2%
CCO[14c]1[14cH][14cH][14c](Cc2cc([C@]34OC[C@](CO)(O3)[C@@H](O)[C@H](O)[C@H]4O)ccc2Cl)[14cH][14cH]1.O=C1CC[C@@H](C(=O)O)N1 |  |  |  |  |  |  | 36.4 |  |  | Drug metabolism (Plasma [10]): metabolite_detected; Drug metabolism (Plasma [11]): metabolite_detected; Drug recovery [12]: metabolite_not_detected; Drug metabolism (Plasma [13]): metabolite_detected; Drug metabolism (Plasma [14]): metabolite_detected
OC[C@@]12CO[C@@](c3ccc(Cl)c(Cc4ccc(O)cc4)c3)(O1)[C@H](O)[C@@H](O)[C@@H]2O | 1.3 |  | 1.4 | 27.2 |  | 0.4 |  | 1 | 8.7 | Drug recovery [15]: 26.7%
CCOc1ccc(Cc2cc([C@]34OC[C@](CO)(O3)[C@@H](O)[C@H](O)[C@H]4O[C@@H]3O[C@H](C(=O)O)[C@@H](O)[C@H](O)[C@H]3O)ccc2Cl)cc1 | 12.2 | metabolite_detected | 5.7 | 29.4 | metabolite_detected | 5.7 |  |  |  | 
CCOc1ccc(C(O)c2cc([C@]34OC[C@](CO)(O3)[C@@H](O)[C@H](O)[C@H]4O)ccc2Cl)cc1 (mixture of isomers) | 2.5 |  | 2.4 | 27.9 |  | 0.7 |  | 1.7 | 7.1 | 
CCOc1ccc(Cc2cc([C@]34OC[C@](CO)(O3)[C@@H](O)[C@H](O)[C@H]4O)ccc2Cl)cc1 [ERTUGLIFLOZIN] |  |  |  |  |  |  | 36.4 |  |  | metabolised [18]: 49.9%; bioavailability [19]: 94%; dose excreted [20]: 2.4%; half-life [21]: 16.9 h; AUC(0-t) [22]: 2790 ng·h/mL; dose excreted [23]: 35.3%; AUC (Homo sapiens [24]): 2800 ng·h/mL; Tmax [25]: 1 h; dose excreted [26]: 9.6%; Cmax [27]: 490 ng/mL; half-life [28]: 11 h; bioavailability [29]: 69%
